The assay addresses T1, Nav 1.7 (Homo sapiens, UniProt Q15858).
T1 construct: expressed in transfected cells
Put plainly: Whole-cell voltage clamp electrophysiology, automated patch clamp (marker c in Table of Examples). Type of assay: cell-based. As to conditions: marker c: Automated patch clamp data; read-out: Nav 1.7 activity. The source says:
a.IonWork Quattro data, b=Manual patch clamp data, c=Automated patch clamp data M=Method
Whole-Cell Voltage Clamp Electrophysiology Assay
Patch-clamp electrophysiology is considered the gold standard technique for investigation of ion channel function and pharmacology. Using this method, sodium channel currents can be measured in cells, which stably (or transiently) express the sodium channel subtype of interest. Application of compounds during such experiments provides a functional measure of the activity and potency of compounds affecting the ion channel of interest.
Electrophysiological studies can be performed using automated or manual patch-clamp techniques. Automated patch-clamp instruments suitable for this work include the Ion Works HT (MDS), Ion Works Quattro (MDS), PatchLiner (Nanion technologies), Port-A-Patch (Nanion technologies), QPatch (Sophion) or any other suitable platform.
For recording in automated patch-clamp instruments, cells expressing the voltage-gated sodium channel subtype of interest are dispensed in appropriate chips (plates with more than one recording chambers each containing one or more apertures to generate whole-cell patches), as provided by the manufacturer. Typically, the whole-cell perforated patch configuration is used for probing the pharmacology of compounds in automated patch-clamp electrophysiology on sodium channels. Extracellular and intracellular buffers for such experiments are composed according to the literature, or according to the instructions provided by the manufacturer of the instruments. Test solutions, which contain the compounds to be tested, are applied to the cells expressing the sodium channel of interest by a pipetting system, typically integrated into the robots.
A suitable voltage stimulus protocol is used to activate voltage-gated sodium channel proteins of interest. A typical stimulus protocol may consist of sweeps of sequential voltage pulses starting from a holding potential (i.e. −65 mV), to a more positive and depolarising test pulse potential (i.e. −10 mV) and finally to a more negative and hyperpolarising potential (i.e. −100 mV). According to the biophysics of the voltage-gated ion channel of interest and interest in channel configuration the voltages and durations of the pulses as well as the overall frequency of sweeps applied might vary. Accordingly, a stimulus protocol was designed to assess compounds due to their potential to block NaV1.7 channels primarily in inactivated state. Selectivity over other voltage-gated sodium channel members was assessed by protocols that reflect the native function of the channels (i.e. heart rate or firing of neurons).
(Patch clamp records ionic current or voltage across a cell membrane.)
T1 sequence (Q15858 whole entry): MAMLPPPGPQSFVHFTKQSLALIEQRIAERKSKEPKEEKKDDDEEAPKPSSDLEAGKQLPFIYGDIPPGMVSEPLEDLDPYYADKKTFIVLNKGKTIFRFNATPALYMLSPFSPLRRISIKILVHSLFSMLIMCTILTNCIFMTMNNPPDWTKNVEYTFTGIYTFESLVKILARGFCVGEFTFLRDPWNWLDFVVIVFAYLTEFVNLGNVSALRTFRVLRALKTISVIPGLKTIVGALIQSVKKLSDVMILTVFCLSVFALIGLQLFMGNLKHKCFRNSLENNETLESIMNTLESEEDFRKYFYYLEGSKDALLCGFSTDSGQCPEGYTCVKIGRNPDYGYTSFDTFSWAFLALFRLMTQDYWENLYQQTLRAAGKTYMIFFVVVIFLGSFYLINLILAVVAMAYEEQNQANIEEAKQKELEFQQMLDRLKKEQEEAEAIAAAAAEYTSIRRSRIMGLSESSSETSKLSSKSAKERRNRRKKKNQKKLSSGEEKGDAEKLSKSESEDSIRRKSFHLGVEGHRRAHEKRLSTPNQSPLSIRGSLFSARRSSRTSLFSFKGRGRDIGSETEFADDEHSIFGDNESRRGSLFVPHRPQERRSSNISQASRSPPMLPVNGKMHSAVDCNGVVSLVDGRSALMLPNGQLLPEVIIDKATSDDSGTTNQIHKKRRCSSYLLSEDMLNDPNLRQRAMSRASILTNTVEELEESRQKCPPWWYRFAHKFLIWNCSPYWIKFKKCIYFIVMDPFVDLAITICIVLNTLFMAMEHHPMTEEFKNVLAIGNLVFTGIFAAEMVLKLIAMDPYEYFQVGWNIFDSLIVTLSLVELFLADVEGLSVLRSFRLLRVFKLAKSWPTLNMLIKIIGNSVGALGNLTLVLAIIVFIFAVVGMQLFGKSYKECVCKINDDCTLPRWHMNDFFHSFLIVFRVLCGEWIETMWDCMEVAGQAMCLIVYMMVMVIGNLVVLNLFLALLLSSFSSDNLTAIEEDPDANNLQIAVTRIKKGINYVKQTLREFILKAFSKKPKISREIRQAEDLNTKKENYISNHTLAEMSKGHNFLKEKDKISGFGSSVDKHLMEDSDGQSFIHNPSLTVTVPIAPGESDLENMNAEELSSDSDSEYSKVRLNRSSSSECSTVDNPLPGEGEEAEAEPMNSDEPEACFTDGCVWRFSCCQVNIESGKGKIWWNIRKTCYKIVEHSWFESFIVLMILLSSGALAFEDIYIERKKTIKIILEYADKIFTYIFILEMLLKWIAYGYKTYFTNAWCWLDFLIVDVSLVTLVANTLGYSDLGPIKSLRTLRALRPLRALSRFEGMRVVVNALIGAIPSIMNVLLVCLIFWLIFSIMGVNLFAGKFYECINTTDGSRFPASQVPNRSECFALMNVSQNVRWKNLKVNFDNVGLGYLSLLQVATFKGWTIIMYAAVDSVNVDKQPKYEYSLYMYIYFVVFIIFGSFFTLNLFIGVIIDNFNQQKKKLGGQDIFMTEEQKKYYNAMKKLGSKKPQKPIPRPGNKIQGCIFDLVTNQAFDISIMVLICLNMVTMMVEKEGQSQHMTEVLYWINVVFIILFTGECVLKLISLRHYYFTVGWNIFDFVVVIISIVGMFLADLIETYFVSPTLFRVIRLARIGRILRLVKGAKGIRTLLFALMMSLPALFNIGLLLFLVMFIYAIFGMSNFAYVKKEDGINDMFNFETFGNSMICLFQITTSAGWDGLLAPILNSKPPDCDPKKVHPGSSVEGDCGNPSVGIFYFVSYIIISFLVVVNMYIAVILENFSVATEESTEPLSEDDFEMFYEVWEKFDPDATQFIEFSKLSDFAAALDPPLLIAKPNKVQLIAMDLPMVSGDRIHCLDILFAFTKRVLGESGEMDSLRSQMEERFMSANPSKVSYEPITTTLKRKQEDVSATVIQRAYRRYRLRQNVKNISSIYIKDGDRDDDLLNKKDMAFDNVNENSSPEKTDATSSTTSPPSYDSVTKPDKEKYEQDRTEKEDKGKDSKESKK
In the case of `CN(C)CCN(c1ccccc1)c1nc(N)nc(-c2noc(-c3ccco3)n2)n1` [Example 69, N-(2-Dimethylamino-ethyl)-6-(5-furan-2-yl-[1,2,4]oxadiazol-3-yl)-N-phenyl-[1,3,5]triazine-2,4-diamine], the IC50 stood at 1370 nM. For `Nc1nc(-c2noc(-c3ccco3)n2)nc(N(CCO)c2ccccc2)n1` [Example 70, 2-{[4-Amino-6-(5-furan-2-yl-[1,2,4]oxadiazol-3-yl)-[1,3,5]triazin-2-yl]-phenyl-amino}-ethanol], the IC50 was determined as 1020 nM. In the case of `CCOC(=O)c1nc(-c2nc(N)nc(N(C)c3ccccc3)n2)no1` [Example 73, 3-[4-Amino-6-(methyl-phenyl-amino)-[1,3,5]triazin-2-yl]-[1,2,4]oxadiazole-5-carboxylic acid ethyl ester], the IC50 amounted to 1490 nM. As to `COc1ccsc1-c1nc(-c2nc(N)nc(N(C)c3ccccc3)n2)no1` [Example 74, 6-[5-(3-Methoxy-thiophen-2-yl)-[1,2,4]oxadiazol-3-yl]-N-methyl-N-phenyl-[1,3,5]triazine-2,4-diamine], the IC50 stood at 1410 nM. In the case of `CNC(=O)c1ccc(-c2nc(-c3nc(N)nc(N(C)c4ccccc4)n3)no2)s1` [Example 75, 5-{3-[4-Amino-6-(methyl-phenyl-amino)-[1,3,5]triazin-2-yl]-[1,2,4]oxadiazol-5-yl}-thiophene-2-carboxylic acid methylamide], the IC50 came to 1190 nM. Next, `COc1ncccc1-c1nc(-c2nc(N)nc(N(C)c3ccccc3)n2)no1` [Example 76, 6-[5-(2-Methoxy-pyridin-3-yl)-[1,2,4]oxadiazol-3-yl]-N-methyl-N-phenyl-[1,3,5]triazine-2,4-diamine]: 925 nM; `COc1ccc(-c2nc(-c3nc(N)nc(N(C)c4ccccc4)n3)no2)c(OC)c1` [Example 77, 6-[5-(2,4-Dimethoxy-phenyl)-[1,2,4]oxadiazol-3-yl]-N-methyl-N-phenyl-[1,3,5]triazine-2,4-diamine]: 246 nM; `CN(c1ccccc1)c1nc(N)nc(-c2noc(-c3ccc(C#N)nc3)n2)n1` [Example 78, 5-{3-[4-Amino-6-(methyl-phenyl-amino)-[1,3,5]triazin-2-yl]-[1,2,4]oxadiazol-5-yl}-pyridine-2-carbonitrile]: 1660 nM. `CN(c1ccccc1)c1nc(N)nc(-c2noc(-c3ccc(C(=O)N4CCOCC4)s3)n2)n1` [Example 79, (5-{3-[4-Amino-6-(methyl-phenyl-amino)-[1,3,5]triazin-2-yl]-[1,2,4]oxadiazol-5-yl}-thiophen-2-yl)-morpholin-4-yl-methanone]: the IC50 worked out at 977 nM. For `CN(c1ccccc1)c1nc(N)nc(-c2noc(-c3ccccc3C#N)n2)n1` [Example 80, 2-{3-[4-Amino-6-(methyl-phenyl-amino)-[1,3,5]triazin-2-yl]-[1,2,4]oxadiazol-5-yl}-benzonitrile], the IC50 is 260 nM. For the compound `COc1cccc(-c2nc(-c3nc(N)nc(N(C)c4cccc(Cl)c4)n3)no2)c1` [Example 83, N-(3-Chloro-phenyl)-6-[5-(3-methoxy-phenyl)-[1,2,4]oxadiazol-3-yl]-N-methyl-[1,3,5]triazine-2,4-diamine], the IC50 turned out to be 691 nM.

As for `CN(c1cccc(Cl)c1)c1nc(N)nc(-c2noc(-c3ccccc3Cl)n2)n1` [Example 84, N-(3-Chloro-phenyl)-6-[5-(2-chloro-phenyl)-[1,2,4]oxadiazol-3-yl]-N-methyl-[1,3,5]triazine-2,4-diamine], the IC50 was found to be 170 nM. As for `COc1cccc(-c2nc(-c3nc(N)nc(N(C)c4cccc(F)c4)n3)no2)c1` [Example 85, N-(3-Fluoro-phenyl)-6-[5-(3-methoxy-phenyl)-[1,2,4]oxadiazol-3-yl]-N-methyl-[1,3,5]triazine-2,4-diamine], the IC50 is 1270 nM. In the case of `Cc1ccc(-c2nc(-c3nc(N)nc(N(C)c4cccc(F)c4)n3)no2)o1` [Example 87, N-(3-Fluoro-phenyl)-N-methyl-6-[5-(5-methyl-furan-2-yl)-[1,2,4]oxadiazol-3-yl]-[1,3,5]triazine-2,4-diamine], the IC50 worked out at 3490 nM. Turning to `COc1cccc(-c2nc(-c3nc(N)nc(N(C)c4ccccc4F)n3)no2)c1` [Example 88, N-(2-Fluoro-phenyl)-6-[5-(3-methoxy-phenyl)-[1,2,4]oxadiazol-3-yl]-N-methyl-[1,3,5]triazine-2,4-diamine], the IC50 worked out at 361 nM.

On to `COc1ccccc1-c1nc(-c2nc(N)nc(N(C)c3ccccc3F)n2)no1` [Example 89, N-(2-Fluoro-phenyl)-6-[5-(2-methoxy-phenyl)-[1,2,4]oxadiazol-3-yl]-N-methyl-[1,3,5]triazine-2,4-diamine], for which the IC50 is 200 nM. Take `CN(c1nc(N)nc(-c2noc(-c3cccs3)n2)n1)c1ccccc1F` [Example 90, N-(2-Fluoro-phenyl)-N-methyl-6-(5-thiophen-2-yl-[1,2,4]oxadiazol-3-yl)-[1,3,5]triazine-2,4-diamine]: the IC50 was found to be 415 nM. For `Cc1ccc(-c2nc(-c3nc(N)nc(N(C)c4ccccc4F)n3)no2)o1` [Example 91, N-(2-Fluoro-phenyl)-N-methyl-6-[5-(5-methyl-furan-2-yl)-[1,2,4]oxadiazol-3-yl]-[1,3,5]triazine-2,4-diamine], the IC50 stood at 547 nM. With `COc1ccccc1-c1nc(-c2nc(N)nc(N(C)c3cccc(C)c3)n2)no1` [Example 92, 6-[5-(2-Methoxy-phenyl)-[1,2,4]oxadiazol-3-yl]-N-methyl-N-m-tolyl-[1,3,5]triazine-2,4-diamine], the IC50 stood at 511 nM. Take `Cc1cccc(N(C)c2nc(N)nc(-c3noc(-c4cccs4)n3)n2)c1` [Example 93, N-Methyl-6-(5-thiophen-2-yl-[1,2,4]oxadiazol-3-yl)-N-m-tolyl-[1,3,5]triazine-2,4-diamine]: the IC50 worked out at 931 nM. On to `CCN(c1ccccc1)c1nc(N)nc(-c2noc(-c3cccc(OC)c3)n2)n1` [Example 94, N-Ethyl-6-[5-(3-methoxy-phenyl)-[1,2,4]oxadiazol-3-yl]-N-phenyl-[1,3,5]triazine-2,4-diamine], for which the IC50 was 813 nM. Regarding `CCN(c1ccccc1)c1nc(N)nc(-c2noc(-c3cccs3)n2)n1` [Example 96, N-Ethyl-N-phenyl-6-(5-thiophen-2-yl-[1,2,4]oxadiazol-3-yl)-[1,3,5]triazine-2,4-diamine], the IC50 was found to be 518 nM. Take `CCN(c1ccccc1)c1nc(N)nc(-c2noc(-c3ccc(C)o3)n2)n1` [Example 97, N-Ethyl-6-[5-(5-methyl-furan-2-yl)-[1,2,4]oxadiazol-3-yl]-N-phenyl-[1,3,5]triazine-2,4-diamine]: the IC50 worked out at 1300 nM. Next, `COc1ccccc1-c1nc(-c2nc(N)nc(N(C)c3cccc(F)c3)n2)no1` [Example 98, N-(3-Fluoro-phenyl)-6-[5-(2-methoxy-phenyl)-[1,2,4]oxadiazol-3-yl]-N-methyl-[1,3,5]triazine-2,4-diamine]: 318 nM. Next, `CN(c1cccc(F)c1)c1nc(N)nc(-c2noc(-c3cccs3)n2)n1` [Example 99, N-(3-Fluoro-phenyl)-N-methyl-6-(5-thiophen-2-yl-[1,2,4]oxadiazol-3-yl)-[1,3,5]triazine-2,4-diamine]: 1130 nM; `CN(c1cccc(Cl)c1)c1nc(N)nc(-c2noc(-c3cccs3)n2)n1` [Example 101, N-(3-Chlorophenyl)-N-methyl-6-(5-thiophen-2-yl-[1,2,4]oxadiazol-3-yl)-[1,3,5]triazine-2,4-diamine]: 206 nM; `Cc1ccc(-c2nc(-c3nc(N)nc(N(C)c4cccc(Cl)c4)n3)no2)o1` [Example 102, N-(3-Chloro-phenyl)-N-methyl-6-[5-(5-methyl-furan-2-yl)-[1,2,4]oxadiazol-3-yl]-[1,3,5]triazine-2,4-diamine]: 489 nM.

For the compound `Cc1cccc(N(C)c2nc(N)nc(-c3noc(-c4ccco4)n3)n2)c1F` [Example 107, N-(2-Fluoro-3-methyl-phenyl)-6-(5-furan-2-yl-[1,2,4]oxadiazol-3-yl)-N-methyl-[1,3,5]triazine-2,4-diamine], the IC50 turned out to be 749 nM. Consider `Nc1nc(Nc2cc(F)ccc2F)nc(-c2noc(-c3ccco3)n2)n1` [Example 109, N-(2,5-Difluoro-phenyl)-6-(5-furan-2-yl-[1,2,4]oxadiazol-3-yl)-[1,3,5]triazine-2,4-diamine], for which the IC50 turned out to be 369 nM. In the case of `CN(c1ccccc1)c1nc(N)nc(-c2noc(-c3ccncc3)n2)n1` [Example 114, N-Methyl-N-phenyl-6-(5-pyridin-4-yl-[1,2,4]oxadiazol-3-yl)-[1,3,5]triazine-2,4-diamine], the IC50 was 606 nM. With `CN(c1ccccc1)c1nc(N)nc(-c2noc(-c3cccnc3)n2)n1` [Example 115, N-Methyl-N-phenyl-6-(5-pyridin-3-yl-[1,2,4]oxadiazol-3-yl)-[1,3,5]triazine-2,4-diamine], the IC50 was found to be 1320 nM.

These data come from patent US8895733B2 (Novartis AG, priority 2010, dated 2014).
